Measurements taken from patent publication US20240132485A1, “HETEROCYCLIC CULLIN RING UBIQUITIN LIGASE COMPOUNDS AND USES THEREOF” (CEMM - FORSCHUNGSZENTRUM FÜR MOLEKULARE MEDIZIN GMBH, priority 2020, published 2024).

Experiments:
KBM7 cells (wild-type) = assay: KBM7 CTG EC50 assay (UBE2M wild-type); assay type: cell-based, human; conditions: for EC50: Homo sapiens, KBM-7, 72 h incubation, CellTiter-Glo, read-out: KBM7 CTG EC50 (UBE2M wild-type) Activity Class; for Ratio UBE2M WT to KO: ratio of anti-proliferative activity in KBM7 wild-type versus UBE2M knock-out cells (fold)
Text: (§1) This is a cell viability assay to measure the desired therapeutic effect, i.e. killing of cancer cells. The UBE2M mutant cell line has impaired activity of the Cullin-RING ligase system due to a hypomorphic mutation in UBE2M, which is required for activation of these E3 ligases. By comparison with WT cells, it is possible to estimate the contribution of Cyclin K degradation (which is reduced in UBE2M mut cells) compared to kinase inhibition of CDK12 (which is unaffected in UBE2M mut cells). Since the UBE2M mutation only reduces CRL function without fully abrogating it, this assay may slightly underestimate the effect of degradation because, at high compound concentrations, degradation may still be observed.
(§2) KBM7 cells (wild-type or harboring α hypomorphic UBE2M mutation (Mayor-Ruiz et al., 2019)) were seeded in a white opaque 384-well plate at a density of 1000 cells per well in duplicate, in full medium (IMDM+10% FBS+1% penicillin-streptomycin). Cells were treated with compounds in a 10-point titration with a dilution factor of 1:4 (range: 0 to 20 μM). After 72 h of incubation, the cell viability was determined using the CellTiter-Glo® 2.0 reactant (Promega), pre-diluted 1:4 in mQ water. The luminescence signal was measured using the multimode plate reader EnVision 2105 (Perkin Elmer).

[1] = tested on: KBM7 cells harboring a hypomorphic UBE2M mutation; assay: KBM7 CTG EC50 assay (UBE2M knock-out); assay type: cell-based; conditions: Homo sapiens, KBM-7; 72 h incubation, CellTiter-Glo; read-out: KBM7 CTG EC50 (UBE2M knock-out) Activity Class
Text: as §1, §2

CCNK = assay: NanoLuc-CCNK degradation assay (HEK293T_Nluc_CCNK-tagged cells); assay type: cell-based; conditions: for DC50 / NanoLuc-CCNK degradation DC50 Activity Class: 4 h incubation, HEK293T_Nluc_CCNK-tagged cells; for DC50: read-out: NanoLuc-CCNK degradation DC50 Activity Class
Experimental: The assay helps to elucidate the mechanistic explanation of the cell killing effect of the compounds of the present invention. Cyclin K is fused to a nanoluciferase, light emission is measured as a proxy of Cyclin K abundance. Potency of Cyclin K degradation and cytotoxicity of KBM7 correlate extremely well, further supporting Cyclin K degradation being the main driver of the cell killing, as opposed to inhibition of CDK12 catalytic activity.
HEK293T_Nluc_CCNK-tagged cells were engineered by integrating a nanoluciferase tag at the N-terminus of the endogenous locus of CCNK using CRISPR-Cas9 technology. Briefly, 5.5 million HEK293T cells were co-transfected by PEI with a 1:1 ratio of cutting vector (sgRNA: […]) and repair template (4 μg total plasmid) as previously described (Brand and Winter, 2019). The repair sequence comprises a cassette of puromycinR-P2A-HA-Nluc-(G4S)3 (P2A: self-cleaving peptide 2A, HA: HA-tag, (G4S)3: flexible linker), surrounded by 20-nucleotide microhomologies matching the genomic locus. After 3 days of incubation, the recombinant population was selected by puromycin treatment (2 μg/ml, 5-day treatment). A monoclonal population was obtained by limiting dilution and cassette integration validated by Sanger sequencing.
HEK293T_Nluc_CCNK-tagged cells were seeded in a white opaque 384-well plate at a density of 8000 cells per well in duplicate, in full medium (Opti-MEM I+4% FBS+1% PS). Cells were treated with compounds in a 10-point titration (range: 0 to 10 μM, 1:4 dilution). After 4 h of incubation, Nano-Glo substrate (Promega), pre-diluted in serum-free medium (Opti-MEM I), was added to the cells (1:500 final dilution). The luminescence signal was directly measured using the multimode plate reader EnVision 2105 (Perkin Elmer).

[2] = biological target: T1, DDB1-CDK12/Cyclin K ternary complex (Homo sapiens, UniProt Q16531+Q9NYV4); assay: NanoBRET EC50 assay (HaloTag_CDK12 / NanoLuc_DDB1 in HEK293T); assay type: cell-based; conditions: for EC50: read-out: NanoBRET EC50 Activity Class
T1 construct: expressed in transfected cells; host or cells: HEK293T wildtype cells, transient PEI transfection
T1 sequence (Q9NYV4 whole entry): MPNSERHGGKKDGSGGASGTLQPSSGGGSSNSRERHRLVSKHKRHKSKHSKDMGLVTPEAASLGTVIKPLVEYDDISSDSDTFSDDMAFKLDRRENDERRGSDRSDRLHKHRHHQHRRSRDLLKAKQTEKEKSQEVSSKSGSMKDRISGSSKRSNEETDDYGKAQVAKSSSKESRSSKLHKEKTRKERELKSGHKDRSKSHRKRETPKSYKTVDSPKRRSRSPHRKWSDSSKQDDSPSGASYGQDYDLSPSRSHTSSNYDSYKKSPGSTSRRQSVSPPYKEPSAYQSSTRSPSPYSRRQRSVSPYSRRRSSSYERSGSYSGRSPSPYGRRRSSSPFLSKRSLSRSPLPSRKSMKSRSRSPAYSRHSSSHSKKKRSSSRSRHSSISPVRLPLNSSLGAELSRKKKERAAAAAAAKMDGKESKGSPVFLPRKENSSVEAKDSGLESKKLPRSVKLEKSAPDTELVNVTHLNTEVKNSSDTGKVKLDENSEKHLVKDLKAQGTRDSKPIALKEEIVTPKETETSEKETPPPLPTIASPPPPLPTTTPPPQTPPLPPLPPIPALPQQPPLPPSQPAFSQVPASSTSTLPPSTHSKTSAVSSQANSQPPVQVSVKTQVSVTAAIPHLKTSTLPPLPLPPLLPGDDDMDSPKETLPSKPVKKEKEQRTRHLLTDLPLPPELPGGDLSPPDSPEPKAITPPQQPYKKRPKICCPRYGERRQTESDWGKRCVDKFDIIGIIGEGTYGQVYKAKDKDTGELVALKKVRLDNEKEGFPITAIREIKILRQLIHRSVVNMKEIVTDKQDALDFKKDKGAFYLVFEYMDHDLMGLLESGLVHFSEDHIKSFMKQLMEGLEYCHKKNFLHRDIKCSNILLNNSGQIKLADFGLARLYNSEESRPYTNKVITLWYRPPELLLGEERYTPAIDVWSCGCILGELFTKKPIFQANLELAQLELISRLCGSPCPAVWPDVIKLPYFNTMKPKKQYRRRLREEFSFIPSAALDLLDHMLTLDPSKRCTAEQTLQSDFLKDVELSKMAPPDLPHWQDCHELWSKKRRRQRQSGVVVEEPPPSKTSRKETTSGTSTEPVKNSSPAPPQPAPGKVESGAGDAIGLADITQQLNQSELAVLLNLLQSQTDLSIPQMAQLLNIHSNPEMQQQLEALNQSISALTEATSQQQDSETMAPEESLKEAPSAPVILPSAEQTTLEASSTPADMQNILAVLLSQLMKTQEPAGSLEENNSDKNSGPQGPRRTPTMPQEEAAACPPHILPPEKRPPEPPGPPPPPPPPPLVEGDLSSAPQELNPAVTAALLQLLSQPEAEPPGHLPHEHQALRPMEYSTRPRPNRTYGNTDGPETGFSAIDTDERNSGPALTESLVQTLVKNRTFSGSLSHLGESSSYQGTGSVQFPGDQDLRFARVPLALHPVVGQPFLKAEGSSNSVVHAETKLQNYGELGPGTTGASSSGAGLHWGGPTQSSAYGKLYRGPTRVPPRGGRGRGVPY
T1 sequence (Q16531 whole entry): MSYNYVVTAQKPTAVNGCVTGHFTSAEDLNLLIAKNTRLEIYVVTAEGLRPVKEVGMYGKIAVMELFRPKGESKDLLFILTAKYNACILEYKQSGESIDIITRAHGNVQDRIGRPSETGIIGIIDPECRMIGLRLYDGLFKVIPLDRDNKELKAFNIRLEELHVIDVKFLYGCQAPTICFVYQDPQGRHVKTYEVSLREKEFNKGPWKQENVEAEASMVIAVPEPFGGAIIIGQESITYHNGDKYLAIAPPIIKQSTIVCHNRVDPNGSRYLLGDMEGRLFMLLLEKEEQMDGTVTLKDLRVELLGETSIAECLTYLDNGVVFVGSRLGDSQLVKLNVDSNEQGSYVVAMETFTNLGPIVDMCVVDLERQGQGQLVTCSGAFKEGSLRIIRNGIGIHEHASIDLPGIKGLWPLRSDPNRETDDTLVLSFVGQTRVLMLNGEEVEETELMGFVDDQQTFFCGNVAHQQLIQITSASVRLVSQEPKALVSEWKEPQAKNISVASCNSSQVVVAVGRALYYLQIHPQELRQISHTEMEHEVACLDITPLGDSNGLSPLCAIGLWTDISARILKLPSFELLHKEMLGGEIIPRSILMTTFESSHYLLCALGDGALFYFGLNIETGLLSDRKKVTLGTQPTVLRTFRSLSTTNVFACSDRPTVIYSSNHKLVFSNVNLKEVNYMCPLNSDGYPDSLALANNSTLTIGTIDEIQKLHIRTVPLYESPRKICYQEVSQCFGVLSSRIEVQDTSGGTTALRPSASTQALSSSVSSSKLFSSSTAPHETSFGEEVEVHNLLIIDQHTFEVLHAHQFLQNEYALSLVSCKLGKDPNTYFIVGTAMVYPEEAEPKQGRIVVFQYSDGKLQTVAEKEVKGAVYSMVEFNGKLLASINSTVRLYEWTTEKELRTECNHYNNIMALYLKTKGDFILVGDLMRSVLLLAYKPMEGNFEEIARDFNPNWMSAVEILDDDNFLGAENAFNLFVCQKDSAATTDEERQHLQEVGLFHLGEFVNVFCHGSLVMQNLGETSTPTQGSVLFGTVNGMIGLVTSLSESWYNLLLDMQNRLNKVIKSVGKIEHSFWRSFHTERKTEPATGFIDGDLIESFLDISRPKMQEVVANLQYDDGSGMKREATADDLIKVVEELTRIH
T1 sequence (O75909 whole entry partner): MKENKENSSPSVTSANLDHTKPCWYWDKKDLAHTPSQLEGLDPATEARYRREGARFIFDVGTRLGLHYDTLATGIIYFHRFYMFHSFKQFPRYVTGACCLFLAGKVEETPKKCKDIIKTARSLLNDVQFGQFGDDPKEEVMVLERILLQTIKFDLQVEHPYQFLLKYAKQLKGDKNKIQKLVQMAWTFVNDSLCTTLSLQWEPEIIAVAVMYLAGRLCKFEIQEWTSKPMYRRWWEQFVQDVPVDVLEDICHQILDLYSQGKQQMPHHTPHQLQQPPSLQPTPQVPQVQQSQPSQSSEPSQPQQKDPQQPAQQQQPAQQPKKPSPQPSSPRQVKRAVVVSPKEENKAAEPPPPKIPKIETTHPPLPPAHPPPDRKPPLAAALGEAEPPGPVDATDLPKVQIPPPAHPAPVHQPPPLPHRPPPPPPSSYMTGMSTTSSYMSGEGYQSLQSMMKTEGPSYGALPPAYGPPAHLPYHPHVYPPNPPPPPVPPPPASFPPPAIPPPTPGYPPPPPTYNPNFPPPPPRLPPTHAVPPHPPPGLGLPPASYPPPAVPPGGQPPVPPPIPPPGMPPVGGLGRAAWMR
Experimental: (§3) This assay measures the interaction/recruitment of CDK12/Cyclin K to DDB1, mechanistically validating the molecular glue pharmacology.
(§4) HEK293T wildtype cells are seeded 800 k cells/well (DMEM+10% FBS+1% PS) in a 6-well plate and allowed to attach for ˜7 hours followed by a transient transfection of 1.5 μg HaloTag_CDK12 Plasmid [Table 1] and 0.15 μg NanoLuc_DDB1 plasmid [Table 1] per well using PEI. Cells are incubated at 37° C., 5% CO2, harvested after 24 hours and resuspended in assay media (Opti-MEM Reduced serum media, no phenol red, 4% FBS, 1% PS). Cells are adjusted to 2.3×10^5 cells/ml and treated with HaloTag 618 Ligand at 100 nM or DMSO. 8000 cells are seeded per well in triplicates per compound in a white-walled 384-well plate, one negative control treated with DMSO instead of HaloTag 618 Ligand is seeded in triplicates and the 384-well plate is incubated at 37° C., 5% CO2 overnight. Compound stock solutions are prepared in Opti-MEM−/− (Opti-MEM I Reduced serum media, no phenol red) at 8× and used to treat the cells at a final concentration of 1× at 10 μM. Cells and compounds are incubated for 10 minutes at room temperature followed by addition of NanoBRET Nano-Glo substrate following manufacturer's protocols. The plate is shaken for 30 sec followed by immediate measurement of donor emission (NanoBRET Blue at 460 nm) and acceptor emission (BRET Deep Red at 647 nm) for 0.5 s.
The assay setup is identical to “NanoBRET fold change experimental setup”. Instead of treating cells in […] with 10 μM compound, a 10-point titration starting at 20 μM is performed with a dilution factor of 1:4, covering α range of 20000 nM-0.076 nM.

[3] = biological target: T1, DDB1-CDK12/Cyclin K ternary complex; assay: NanoBRET fold-change assay (HaloTag_CDK12 / NanoLuc_DDB1 in HEK293T); assay type: cell-based; conditions: 10 μM compound, 10 minutes
Experimental: as §3, §4

[4] = 10-point titration from 20 μM, HEK293T

| SMILES | EC50 (KBM7 cells (wild-type)) | activity in KBM7 cytotoxicity assay, in words (KBM7 cells (wild-type); KBM7) | Ratio UBE2M WT to KO (KBM7 cells (wild-type)) | EC50 [1] | activity in NanoLuc CCNK degradation assay, in words (CCNK) | DC50 (CCNK) | activity in NanoBRET assay (ternary complex formation), in words [2] | EC50 [2, 4] | NanoBRET fold-change Activity Class [3] | NanoLuc-CCNK degradation DC50 Activity Class (CCNK) | NanoBRET EC50 Activity Class [2, 4] |
| --- | --- | --- | --- | --- | --- | --- | --- | --- | --- | --- | --- |
| COc1cc(Br)cn2cc(CC(=O)Nc3ncc(C(F)(F)F)s3)nc12 [Example 3-9, 2-(6-bromo-8-methoxyimidazo[1,2-a]pyridin-2-yl)-N-(5-(trifluoromethyl)thiazol-2-yl)acetamide] | ≤ 250 nM | extremely potent activity | 2.0 | ≤ 250 nM | exceptional activity | ≤ 100 nM | exceptional activity | ≤ 250 nM | A (greater than 4-fold increase) | – | – |
| O=C(Nc1ncc(C(F)(F)F)s1)C1CC(=O)N(c2cc(F)ccc2F)C1 (stereo not drawn) [Example 3-22, 1-(2,5-difluorophenyl)-5-oxo-N-(5-(trifluoromethyl)thiazol-2-yl)pyrrolidine-3-carboxamide] | ≤ 250 nM | – | >10 | > 10000 nM | – | > 10000 nM | – | > 10000 nM | B (3-4 fold increase) | – | – |
| O=C(Cc1c[nH]c2cccnc12)Nc1ncc(C(F)(F)F)s1 [Example 3-40, 2-(1H-pyrrolo[3,2-b]pyridin-3-yl)-N-(5-(trifluoromethyl)thiazol-2-yl)acetamide] | ≤ 250 nM | – | >200 | > 10000 nM | – | – | – | – | – | D (10 μM≤DC50<1.0 μM) | B (0.50 μM≤EC50≤0.25 μM) |
| Cc1c(CC(=O)Nc2ncc(C(F)(F)F)s2)sc2ccccc12 [Example 3-12, 2-(3-methylbenzo[b]thiophen-2-yl)-N-(5-(trifluoromethyl)thiazol-2-yl)acetamide] | > 10000 nM | – | >10 | > 10000 nM | – | > 10000 nM | – | – | D (1-2 fold increase) | – | – |
| O=C(Cc1ccc2ccncc2c1)Nc1ncc(C(F)(F)F)s1 [Example 3-32, 2-(isoquinolin-7-yl)-N-(5-(trifluoromethyl)thiazol-2-yl)acetamide] | ≤ 250 nM | – | 115.9 | 1000 to 10000 nM | – | ≤ 100 nM | – | – | B (3-4 fold increase) | – | – |
| O=C(Cc1c[nH]c2nccc(Cl)c12)Nc1ncc(C(F)(F)F)s1 [Example 3-39, 2-(4-chloro-1H-pyrrolo[2,3-b]pyridin-3-yl)-N-(5-(trifluoromethyl)thiazol-2-yl)acetamide] | 1000 to 10000 nM | – | >4 | > 10000 nM | – | – | – | – | B (3-4 fold increase) | D (10 μM≤DC50<1.0 μM) | – |
| O=C(Cc1cn2cc(F)ccc2n1)Nc1cc(Cl)[nH]n1 [Example 3-60, N-(5-chloro-1H-pyrazol-3-yl)-2-(6-fluoroimidazo[1,2-a]pyridin-2-yl)acetamide] | 1000 to 10000 nM | – | >9 | > 10000 nM | – | > 10000 nM | – | – | C (2-3 fold increase) | – | – |
| O=C(Cc1cn2cc(Cl)cc(Cl)c2n1)Nc1ncc(C(F)(F)F)s1 [Example 3-8, 2-(6,8-dichloroimidazo[1,2-a]pyridin-2-yl)-N-(5-(trifluoromethyl)thiazol-2-yl)acetamide] | ≤ 250 nM | – | 51.5 | ≤ 250 nM | – | ≤ 100 nM | – | – | A (greater than 4-fold increase) | – | – |
| O=C(Cc1cc2ccccc2s1)Nc1ncc(C(F)(F)F)s1 [Example 3-10, 2-(benzo[b]thiophen-2-yl)-N-(5-(trifluoromethyl)thiazol-2-yl)acetamide] | ≤ 250 nM | – | 23.6 | 1000 to 10000 nM | – | ≤ 100 nM | – | – | C (2-3 fold increase) | – | – |
| O=C(Nc1ncc(C(F)(F)F)s1)C1CC(=O)N(c2ccc3c(c2)OCO3)C1 (stereo not drawn) [Example 3-25, 1-(benzo[d][1,3]dioxol-5-yl)-5-oxo-N-(5-(trifluoromethyl)thiazol-2-yl)pyrrolidine-3-carboxamide] | 250 to 500 nM | – | >10 | > 10000 nM | – | > 10000 nM | – | – | B (3-4 fold increase) | – | – |
| Cc1ccc(N2CC(C(=O)Nc3ncc(C(F)(F)F)s3)CC2=O)cc1 (stereo not drawn) [Example 3-16, 5-oxo-1-(p-tolyl)-N-(5-(trifluoromethyl)thiazol-2-yl)pyrrolidine-3-carboxamide] | 250 to 500 nM | – | >10 | > 10000 nM | – | – | – | – | C (2-3 fold increase) | C (1.0 μM≤DC50<0.50 μM) | – |
| Cc1cccn2c(CC(=O)Nc3ncc(C(F)(F)F)s3)cnc12 [Example 3-6, 2-(8-methylimidazo[1,2-a]pyridin-3-yl)-N-(5-(trifluoromethyl)thiazol-2-yl)acetamide] | ≤ 250 nM | – | 129.4 | 1000 to 10000 nM | – | – | – | – | C (2-3 fold increase) | D (10 μM≤DC50<1.0 μM) | – |
| Cc1ccc(CN2CC(C(=O)Nc3ncc(C(F)(F)F)s3)CC2=O)cc1 (stereo not drawn) [Example 3-29, 1-(4-methylbenzyl)-5-oxo-N-(5-(trifluoromethyl)thiazol-2-yl)pyrrolidine-3-carboxamide] | 500 to 1000 nM | – | >16 | > 10000 nM | – | > 10000 nM | – | – | B (3-4 fold increase) | – | – |
| O=C(Nc1ncc(C(F)(F)F)s1)C1CC(=O)N(c2ccc(Cl)cc2)C1 (stereo not drawn) [Example 3-18, 1-(4-chlorophenyl)-5-oxo-N-(5-(trifluoromethyl)thiazol-2-yl)pyrrolidine-3-carboxamide] | ≤ 250 nM | – | >10 | > 10000 nM | – | – | – | – | C (2-3 fold increase) | D (10 μM≤DC50<1.0 μM) | – |
